From publication PMC5826917, “A small molecule inhibitor of Nicotinamide N-methyltransferase for the treatment of metabolic disorders” (Scientific Reports, 2018)

Key:
mouse NNMT (mNNMT) = molecular target: T1, mouse NNMT (mNNMT) (Mus musculus, UniProt O55239); assay: Fluorescence based NNMT enzymatic assay (mouse); conditions: fluorescence based biochemical assay
T1 construct: The full length NNMT proteins (1–264 amino acids) of human & mouse; 6 × His tag (N); TEV cleavage site (ENLYFQG) (N); made in house; host or cells: E. coli Rosetta2(DE3)pLysS
Description: NNMT activity was measured with the fluorescence enzymatic assay[22],[23]. MNA formed in the NNMT reaction reacts with acetophenone in the presence of KOH and formic acid and forms a fluorescent product 2, 7- naphthyridine. JBSNF-000088 was screened using human, mouse and monkey NNMT enzymes. Different concentrations of inhibitors were preincubated along with the enzyme for 30 minutes at room temperature. Reaction was initiated by addition of SAM and nicotinamide mixture (7 µM, 20 µM, 8 µM SAM and 6 µM, 20 µM, 9 µM nicotinamide for human, mouse and monkey NNMT assays respectively) for 60 minutes at 37 °C. The final assay reaction mixture contained a buffer of 100 mM Tris Hcl pH 7.5, 0.04% BSA, 2 mM dithiothreitol and 1% DMSO. At the end of the incubation, the reaction was stopped by the addition of ethanol: acetophenone mix (75% ethanol: 25% acetophenone) and 5 M potassium hydroxide prepared with 50% ethanol. The reaction was incubated for 15 minutes following which 100 µL of 60% formic acid was added. […] The fluorescent product 2, 7- naphthyridine was measured using a Tecan reader with excitation at 375 nm and emission at 430 nm. The IC50 values were determined by fitting the inhibition curves (percent inhibition versus inhibitor concentration) using a four parametric sigmoidal dose response using GraphPad Prism software.

[1] = system: wild-type and NNMT knockout mice on HFD
Source text: NNMT fl/fl mice on a C57BL/6 background were generated by Regeneron Pharmaceuticals (Tarrytown, NY) using VelociGene® technology. A loxP locus was placed 1.6 kb upstream of the transcription starting site encompassing the gene promoter. A loxP-Frt-Hyg-Frt cassette was inserted 212 bp downstream of NNMT exon 1. The floxed coordinates were chr9:48,412,881–48,414,698. NNMT fl/fl mice were crossed with ZP3-cre mice (C57BL/6, Jackson Laboratories) to generate whole-body NNMT knockout mice. The DIO mouse study was conducted in accordance to the German Animal Protection Law, as well as according to international animal welfare legislation and rules. Female wild-type and NNMT knockout animals were put on high-fat diet (Ssniff HFD adjusted TD.97366) for 18 weeks and then treated with either JBSNF-000088 (50 mg/kg bid by oral gavage) or vehicle for four weeks (n = 9–10 per group). Throughout the study, Mice were housed in an environmentally controlled room at 23 °C on a 12 h:12 h light dark cycle (light on at 06:00 AM), and food and water was offered ad libitum. An oral glucose tolerance test was performed on day 25 of treatment: Animals were fasted overnight. 60 minutes before an oral glucose bolus (2 g kg^−1), JBSNF-000088 (50 mg kg^−1) or vehicle (0.5% HEC + 0.5% Tween80) was administered by oral gavage. For blood glucose analysis, blood was collected from the tail of conscious mice at time points 15, 30, 60 and 120 minutes after the glucose bolus.

[2] = molecular target: cGMP-inhibited 3,5-cyclic phosphodiesterase A (PDEA3) (Homo sapiens, UniProt Q14432); assay: Selectivity panel: PDEA3; assay type: biochemical; conditions: read-out: I% (antagonistic or inhibitory), PDEA3
[3] = molecular target: Adenosine Receptor 1 (ADORA1) (Homo sapiens, UniProt P30542); assay: Selectivity panel: ADORA1; assay type: cell-based
[4] = molecular target: Adrenoreceptor alpha 2A (ADRA2A) (Homo sapiens, UniProt P08913); assay: Selectivity panel: ADRA2A; assay type: cell-based
Description: (§1) Supplement 41598_2018_22081_MOESM1_ESM.docx, table 2: Supplementary table 2: Selectivity profile of JBSNF-000088 (at 10 µM) vs a panel of 34 receptors, channels and enzymes. | column: E% (agonistic); I% (antagonistic or inhibitory)

[5] = molecular target: Adrenoreceptor beta 1 (ADRB1) (Homo sapiens, UniProt P08588); assay: Selectivity panel: ADRB1; assay type: cell-based
[6] = molecular target: Cannabinoid Receptor 1 (CB1) (Homo sapiens, UniProt P21554); assay: Selectivity panel: CB1; assay type: cell-based
Description: as §1

Dopamine Receptor 1 (D1) = Dopamine Receptor 1 (D1) (Homo sapiens, UniProt P21728); assay: Selectivity panel: D1; assay type: cell-based
Description: as §1

[7] = system: Glycine Receptor (strychnine-sensitive); assay: Selectivity panel: glycine receptor; assay type: binding; conditions: 10 µM
[8] = system: K+ Channel Voltage Dependent; assay: Selectivity panel: K+ channel; assay type: binding; conditions: 10 µM
[9] = molecular target: Mono Amine Oxydase A (MAO-A) (Homo sapiens, UniProt P21397); assay: Selectivity panel: MAO-A; assay type: biochemical; conditions: read-out: I% (antagonistic or inhibitory), MAO-A
Na+/K+ ATPase Pump = assay: Selectivity panel: Na+/K+ ATPase; assay type: biochemical; conditions: 10 µM
Niacin receptor (NAR1) = Niacin receptor (NAR1) (Homo sapiens, UniProt Q8TDS4); assay: Selectivity panel: NAR1; assay type: cell-based; conditions: 10 µM
[10] = system: Nicotinic AChR Receptor Muscle-Type; assay: Selectivity panel: nAChR muscle-type; assay type: binding; conditions: 10 µM
[11] = system: Phencyclidine Receptor (PCP); assay: Selectivity panel: PCP; assay type: binding; conditions: 10 µM
Description: Supplement 41598_2018_22081_MOESM1_ESM.docx, table 2: Supplementary table 2: Selectivity profile of JBSNF-000088 (at 10 µM) vs a panel of 34 receptors, channels and enzymes. | column: I% (antagonistic or inhibitory)

hERG = hERG (Homo sapiens, UniProt Q12809); conditions: 10 µM
physchem = conditions: aqueous buffer
NaV1.5 = NaV1.5 (Homo sapiens, UniProt Q14524); assay: NaV1.5 assay; conditions: tested at 30 µM, result printed @ 10 µM; data not shown
Chain of NaV1.5 (Q14524 whole entry): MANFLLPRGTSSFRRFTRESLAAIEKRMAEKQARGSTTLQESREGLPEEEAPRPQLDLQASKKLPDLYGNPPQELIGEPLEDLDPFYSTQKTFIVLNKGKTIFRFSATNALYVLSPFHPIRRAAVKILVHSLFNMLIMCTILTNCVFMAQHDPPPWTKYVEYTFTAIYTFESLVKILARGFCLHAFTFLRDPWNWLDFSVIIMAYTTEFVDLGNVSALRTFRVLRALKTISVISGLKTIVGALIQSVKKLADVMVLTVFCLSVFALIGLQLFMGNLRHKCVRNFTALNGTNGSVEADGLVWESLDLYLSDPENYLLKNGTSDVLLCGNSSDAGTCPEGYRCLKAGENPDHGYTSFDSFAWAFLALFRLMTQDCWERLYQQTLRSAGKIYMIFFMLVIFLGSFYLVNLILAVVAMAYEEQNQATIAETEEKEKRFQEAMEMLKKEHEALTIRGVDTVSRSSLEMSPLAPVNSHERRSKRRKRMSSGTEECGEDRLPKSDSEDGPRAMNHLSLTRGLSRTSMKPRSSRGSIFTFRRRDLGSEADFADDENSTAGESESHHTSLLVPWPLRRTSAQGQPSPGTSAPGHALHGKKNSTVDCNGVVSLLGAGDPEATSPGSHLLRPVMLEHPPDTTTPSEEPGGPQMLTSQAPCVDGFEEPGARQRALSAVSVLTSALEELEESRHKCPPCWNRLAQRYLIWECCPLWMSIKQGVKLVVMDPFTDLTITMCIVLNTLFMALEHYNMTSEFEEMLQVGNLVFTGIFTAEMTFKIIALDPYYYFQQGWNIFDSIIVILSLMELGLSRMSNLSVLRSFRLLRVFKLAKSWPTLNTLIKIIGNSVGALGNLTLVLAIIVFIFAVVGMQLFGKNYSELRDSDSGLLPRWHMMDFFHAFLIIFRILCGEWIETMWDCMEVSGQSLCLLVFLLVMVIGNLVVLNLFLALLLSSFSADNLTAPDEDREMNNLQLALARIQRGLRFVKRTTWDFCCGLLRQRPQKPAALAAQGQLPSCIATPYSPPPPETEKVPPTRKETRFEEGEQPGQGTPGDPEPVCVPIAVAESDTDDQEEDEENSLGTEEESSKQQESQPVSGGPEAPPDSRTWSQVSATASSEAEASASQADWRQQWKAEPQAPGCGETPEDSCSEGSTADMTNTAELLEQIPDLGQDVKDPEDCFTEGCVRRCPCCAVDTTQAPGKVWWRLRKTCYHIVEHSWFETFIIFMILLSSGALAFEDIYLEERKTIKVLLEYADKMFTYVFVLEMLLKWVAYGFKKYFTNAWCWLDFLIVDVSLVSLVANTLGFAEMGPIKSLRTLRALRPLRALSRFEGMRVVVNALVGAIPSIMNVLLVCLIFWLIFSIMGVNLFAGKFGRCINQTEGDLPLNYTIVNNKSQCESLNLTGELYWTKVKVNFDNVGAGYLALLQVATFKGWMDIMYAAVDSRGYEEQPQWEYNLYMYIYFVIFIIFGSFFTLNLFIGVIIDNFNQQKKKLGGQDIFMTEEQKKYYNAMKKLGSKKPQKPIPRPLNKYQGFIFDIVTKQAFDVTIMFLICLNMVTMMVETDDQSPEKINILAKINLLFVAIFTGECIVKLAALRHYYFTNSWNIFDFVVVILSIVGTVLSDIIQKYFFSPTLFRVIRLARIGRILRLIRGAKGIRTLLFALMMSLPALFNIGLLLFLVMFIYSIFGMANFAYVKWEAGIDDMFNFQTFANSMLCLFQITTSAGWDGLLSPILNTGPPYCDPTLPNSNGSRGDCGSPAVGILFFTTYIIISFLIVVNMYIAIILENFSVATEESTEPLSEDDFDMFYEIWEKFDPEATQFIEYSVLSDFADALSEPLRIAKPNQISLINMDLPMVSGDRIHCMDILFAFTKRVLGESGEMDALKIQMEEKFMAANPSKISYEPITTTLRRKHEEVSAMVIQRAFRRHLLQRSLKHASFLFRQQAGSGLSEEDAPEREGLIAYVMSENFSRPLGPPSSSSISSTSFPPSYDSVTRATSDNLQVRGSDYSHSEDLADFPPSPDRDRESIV

Chain of Adrenoreceptor alpha 2A (ADRA2A) (P08913 whole entry): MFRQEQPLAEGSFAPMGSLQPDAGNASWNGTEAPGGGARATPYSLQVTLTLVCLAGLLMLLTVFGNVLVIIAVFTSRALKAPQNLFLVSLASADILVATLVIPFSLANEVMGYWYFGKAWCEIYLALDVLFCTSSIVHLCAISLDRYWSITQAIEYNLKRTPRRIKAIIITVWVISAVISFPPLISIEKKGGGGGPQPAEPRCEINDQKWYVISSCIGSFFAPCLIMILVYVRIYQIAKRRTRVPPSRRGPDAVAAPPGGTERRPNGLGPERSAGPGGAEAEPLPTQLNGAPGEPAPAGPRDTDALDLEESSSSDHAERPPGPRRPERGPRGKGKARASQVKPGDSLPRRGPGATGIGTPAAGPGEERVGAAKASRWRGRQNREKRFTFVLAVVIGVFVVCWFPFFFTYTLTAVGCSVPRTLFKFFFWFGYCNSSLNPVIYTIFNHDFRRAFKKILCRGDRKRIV
Chain of Dopamine Receptor 1 (D1) (P21728 whole entry): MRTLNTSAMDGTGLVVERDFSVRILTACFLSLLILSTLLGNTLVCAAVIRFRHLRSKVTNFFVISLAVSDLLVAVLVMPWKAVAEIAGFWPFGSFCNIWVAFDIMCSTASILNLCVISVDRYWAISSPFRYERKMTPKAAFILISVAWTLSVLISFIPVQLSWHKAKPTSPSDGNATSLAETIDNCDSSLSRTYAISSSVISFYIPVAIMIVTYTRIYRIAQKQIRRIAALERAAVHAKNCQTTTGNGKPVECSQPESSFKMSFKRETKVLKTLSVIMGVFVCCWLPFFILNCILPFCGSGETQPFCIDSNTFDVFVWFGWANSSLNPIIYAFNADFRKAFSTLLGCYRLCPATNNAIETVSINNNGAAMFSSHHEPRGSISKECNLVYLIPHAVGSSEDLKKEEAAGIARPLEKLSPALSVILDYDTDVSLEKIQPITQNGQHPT
Chain of Adrenoreceptor beta 1 (ADRB1) (P08588 whole entry): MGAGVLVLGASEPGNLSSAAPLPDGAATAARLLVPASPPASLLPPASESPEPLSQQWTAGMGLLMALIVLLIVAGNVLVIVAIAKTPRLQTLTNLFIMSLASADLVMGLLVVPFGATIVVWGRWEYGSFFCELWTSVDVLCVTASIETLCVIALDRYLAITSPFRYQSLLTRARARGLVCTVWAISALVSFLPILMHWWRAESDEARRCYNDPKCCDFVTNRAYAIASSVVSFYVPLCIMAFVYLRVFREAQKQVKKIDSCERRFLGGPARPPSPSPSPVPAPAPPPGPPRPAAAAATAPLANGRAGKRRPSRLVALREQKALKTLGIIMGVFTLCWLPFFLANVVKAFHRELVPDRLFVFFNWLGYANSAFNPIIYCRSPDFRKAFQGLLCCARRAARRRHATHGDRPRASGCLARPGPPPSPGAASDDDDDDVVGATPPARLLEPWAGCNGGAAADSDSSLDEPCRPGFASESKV
Chain of Adenosine Receptor 1 (ADORA1) (P30542 whole entry): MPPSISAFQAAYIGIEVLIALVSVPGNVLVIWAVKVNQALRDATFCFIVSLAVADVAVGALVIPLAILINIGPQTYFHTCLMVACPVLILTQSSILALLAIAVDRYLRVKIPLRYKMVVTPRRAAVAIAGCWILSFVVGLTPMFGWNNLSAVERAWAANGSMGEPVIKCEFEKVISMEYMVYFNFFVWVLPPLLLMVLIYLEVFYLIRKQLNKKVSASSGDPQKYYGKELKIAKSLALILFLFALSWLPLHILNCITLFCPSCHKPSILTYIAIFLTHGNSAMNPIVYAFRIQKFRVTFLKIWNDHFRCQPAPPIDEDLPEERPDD
Chain of Cannabinoid Receptor 1 (CB1) (P21554 whole entry): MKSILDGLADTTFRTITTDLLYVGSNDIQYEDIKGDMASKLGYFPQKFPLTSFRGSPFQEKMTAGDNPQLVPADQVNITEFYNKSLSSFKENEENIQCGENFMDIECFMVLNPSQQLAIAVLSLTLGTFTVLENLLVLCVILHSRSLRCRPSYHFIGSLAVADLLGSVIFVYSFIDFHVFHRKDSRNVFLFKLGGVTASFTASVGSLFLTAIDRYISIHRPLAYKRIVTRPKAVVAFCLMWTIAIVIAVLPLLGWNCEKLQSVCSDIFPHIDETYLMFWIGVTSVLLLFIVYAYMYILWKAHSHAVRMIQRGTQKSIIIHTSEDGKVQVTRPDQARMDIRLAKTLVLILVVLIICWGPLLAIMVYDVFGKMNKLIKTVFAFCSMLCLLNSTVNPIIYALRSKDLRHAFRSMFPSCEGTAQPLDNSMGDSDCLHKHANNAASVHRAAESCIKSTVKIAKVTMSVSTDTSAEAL
Chain of Mono Amine Oxydase A (MAO-A) (P21397 whole entry): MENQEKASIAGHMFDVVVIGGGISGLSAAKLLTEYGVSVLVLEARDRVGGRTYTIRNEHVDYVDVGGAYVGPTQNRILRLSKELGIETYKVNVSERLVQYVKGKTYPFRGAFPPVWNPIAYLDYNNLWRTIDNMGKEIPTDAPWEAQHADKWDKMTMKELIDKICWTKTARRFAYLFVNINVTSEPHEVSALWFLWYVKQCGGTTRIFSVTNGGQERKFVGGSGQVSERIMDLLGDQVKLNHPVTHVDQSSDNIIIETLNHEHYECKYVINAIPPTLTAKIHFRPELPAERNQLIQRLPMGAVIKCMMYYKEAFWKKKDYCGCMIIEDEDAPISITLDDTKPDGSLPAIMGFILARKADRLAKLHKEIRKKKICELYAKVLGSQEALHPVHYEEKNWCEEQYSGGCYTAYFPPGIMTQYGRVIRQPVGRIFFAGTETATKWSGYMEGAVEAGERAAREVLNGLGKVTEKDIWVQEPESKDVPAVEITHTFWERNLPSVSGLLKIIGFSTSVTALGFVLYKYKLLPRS
T1 sequence (O55239 whole entry, the tested form may be a part): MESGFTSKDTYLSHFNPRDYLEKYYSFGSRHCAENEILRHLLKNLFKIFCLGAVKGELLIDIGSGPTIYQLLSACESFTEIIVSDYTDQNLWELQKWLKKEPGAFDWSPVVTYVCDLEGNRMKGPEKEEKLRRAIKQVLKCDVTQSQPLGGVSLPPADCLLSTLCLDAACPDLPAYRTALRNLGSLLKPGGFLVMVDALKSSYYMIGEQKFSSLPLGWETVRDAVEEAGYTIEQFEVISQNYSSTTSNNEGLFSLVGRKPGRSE

In the case of `COc1ccc(C(N)=O)cn1` [JBSNF-000088, 6-methoxynicotinamide], the IC50 (mouse NNMT (mNNMT)) is reported as 5 µM, the “insulin level or glucose-handling in NNMT knockout mice” value ([1]; NNMT knockout mice, vs vehicle-treated knockout) is reported as “no differences in insulin level or glucose-handling” and the Fed glucose levels ([1]; after 28 days, vehicle vs JBSNF-000088, wild-type or knockout) is reported as “not different”. For the same compound, the glucose tolerance ([1]; treated wild-type mice vs vehicle treated) was “improvement in glucose tolerance”, the “plasma MNA” value ([1]; wild-type animals, one hour after last administration, 28-day treatment) was “significant reduction in plasma MNA” and the fed insulin levels ([1]; wild-type mice, four weeks, not statistically significant) was “trend to reduced insulin levels”. The food intake ([1]; wild-type or knockout animals, four weeks) was “no change in food intake”, the inhibition at 10 µM [2] was -1% and the “E% (agonistic), ADORA1” value ([3]; 10 µM) was -3%. The inhibition at 10 µM ([3]; read-out: I% (antagonistic or inhibitory), ADORA1) was -1%, the “E% (agonistic), ADRA2A” value ([4]; 10 µM) was 4% and the inhibition at 10 µM ([4]; read-out: I% (antagonistic or inhibitory), ADRA2A) was -12%. For the same compound, the “E% (agonistic), ADRB1” value ([5]; 10 µM) was 3%, the inhibition at 10 µM ([5]; read-out: I% (antagonistic or inhibitory), ADRB1) was -33% and the “E% (agonistic), CB1” value ([6]; 10 µM) was 0%. For the same compound, the inhibition at 10 µM ([6]; read-out: I% (antagonistic or inhibitory), CB1) was 1%, the “E% (agonistic), D1” value (Dopamine Receptor 1 (D1); 10 µM) was 0% and the inhibition at 10 µM (Dopamine Receptor 1 (D1); read-out: I% (antagonistic or inhibitory), D1) was -3%. The “I% (antagonistic or inhibitory), Glycine Receptor (strychnine-sensitive)” value [7] was -7%, the “I% (antagonistic or inhibitory), K+ Channel Voltage Dependent” value [8] was 3% and the inhibition at 10 µM [9] was -1%. The “I% (antagonistic or inhibitory), Na+/K+ ATPase Pump” value (Na+/K+ ATPase Pump) was 0%, the “E% (agonistic), NAR1” value (Niacin receptor (NAR1)) was -3% and the “I% (antagonistic or inhibitory), Nicotinic AChR Receptor Muscle-Type” value [10] was -2%. The “I% (antagonistic or inhibitory), PCP” value [11] was -11%, the hERG inhibition (hERG) was < 30% and the solubility (physchem) was > 200 µM. The NaV1.5 inhibition (NaV1.5) was < 30%.
